Patent publication US10722501B2 (BAYER AKTIENGESELLSCHAFT, priority 2016, dated 2020)
pIC50: −log10 of the molar value.

Biological target: T1, recombinant full-length human prolyl endopeptidase (PREP) (Homo sapiens, UniProt P48147)
T1 construct: To recombinant full-length human prolyl endopeptidase (PREP, R&D-Systems, 4308-SE); purchased R&D-Systems 4308-SE
T1 sequence (P48147 1-710): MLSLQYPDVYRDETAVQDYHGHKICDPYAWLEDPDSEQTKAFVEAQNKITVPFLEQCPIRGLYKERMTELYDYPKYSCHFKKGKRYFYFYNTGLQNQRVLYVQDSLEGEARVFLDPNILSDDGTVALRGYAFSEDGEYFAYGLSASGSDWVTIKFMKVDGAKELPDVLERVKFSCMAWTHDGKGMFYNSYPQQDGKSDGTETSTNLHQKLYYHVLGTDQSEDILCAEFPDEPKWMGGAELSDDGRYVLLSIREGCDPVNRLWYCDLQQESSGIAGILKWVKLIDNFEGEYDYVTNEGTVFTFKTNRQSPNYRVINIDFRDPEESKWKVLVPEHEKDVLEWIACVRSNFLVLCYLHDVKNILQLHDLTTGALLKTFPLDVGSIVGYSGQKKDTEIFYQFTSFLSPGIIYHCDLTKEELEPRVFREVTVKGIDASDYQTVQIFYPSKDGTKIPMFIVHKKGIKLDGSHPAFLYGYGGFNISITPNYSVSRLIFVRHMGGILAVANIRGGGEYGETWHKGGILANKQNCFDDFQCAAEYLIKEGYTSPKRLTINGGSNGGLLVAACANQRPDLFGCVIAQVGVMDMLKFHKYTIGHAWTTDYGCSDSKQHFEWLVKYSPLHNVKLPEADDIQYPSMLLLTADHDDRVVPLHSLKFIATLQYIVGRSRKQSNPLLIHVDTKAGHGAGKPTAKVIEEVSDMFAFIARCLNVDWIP
Test: Biochemical human prolyl endopeptidase (PREP) assay with fluorescently labelled substrate
Conditions: substrate Z-Gly-Pro-AMC 50 μM, 32° C., 60 min; some as mean values from multiple independent determinations
Outline: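 Initial rates of fluorescence increase from 50 μM Z-Gly-Pro-AMC cleavage (ex 360/em 465 nm, 60 min, 32° C) give percent PREP activity versus no-compound control, and IC50 is interpolated. Enzyme used at 0.4 nM (final, example) in Tris pH 7.5 with EDTA, GSH, BSA and Brij-35; compounds span 1 nM to 30 μM.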

Row | Structure (SMILES) | pIC50
1 | O=C([C@@H]1CCCc2nn(Cc3cncc(Cl)c3)c(=O)n21)N1CC(F)(F)C1 [Example 437, (5S)-2-[(5-Chloropyridin-3-yl)methyl]-5-[(3,3-difluoroazetidin-1-yl)carbonyl]-5,6,7,8-tetrahydro[1,2,4]triazolo[4,3-a]pyridin-3(2H)-one] | 8.15
2 | O=C([C@@H]1CCCc2nn(Cc3cncc(Cl)c3)c(=O)n21)N1CC[C@H](F)C1 [Example 438, (5S)-2-[(5-Chloropyridin-3-yl)methyl]-5-{[(3S)-3-fluoropyrrolidin-1-yl]carbonyl}-5,6,7,8-tetrahydro[1,2,4]triazolo[4,3-a]pyridin-3(2H)-one] | 8.77
3 | O=C([C@@H]1CCCc2nn(Cc3cncc(Cl)c3)c(=O)n21)N1C[C@@H](F)[C@@H](F)C1 [Example 439, (5S)-2-[(5-Chloropyridin-3-yl)methyl]-5-{[(3R,4S)-3,4-difluoropyrrolidin-1-yl]carbonyl}-5,6,7,8-tetrahydro[1,2,4]triazolo[4,3-a]pyridin-3(2H)-one] | 8.66
4 | O=C([C@@H]1CCCc2nn(Cc3cnc(C(F)(F)F)c(Cl)c3)c(=O)n21)N1C[C@@H](F)[C@@H](F)C1 [Example 440, (5S)-2-{[5-Chloro-6-(trifluoromethyl)pyridin-3-yl]methyl}-5-{[(3R,4S)-3,4-difluoropyrrolidin-1-yl]carbonyl}-5,6,7,8-tetrahydro[1,2,4]triazolo[4,3-a]pyridin-3(2H)-one] | 9.15
5 | O=C([C@@H]1CCCc2nn(Cc3cnc(C(F)(F)F)c(Cl)c3)c(=O)n21)N1CCC(F)(F)C1 [Example 441, (5S)-2-{[5-Chloro-6-(trifluoromethyl)pyridin-3-yl]methyl}-5-[(3,3-difluoropyrrolidin-1-yl)carbonyl]-5,6,7,8-tetrahydro[1,2,4]triazolo[4,3-a]pyridin-3(2H)-one] | 8.70
6 | COc1ncc(Cn2nc3n(c2=O)[C@H](C(=O)N2C[C@@H](F)[C@@H](F)C2)CCC3)cc1Cl [Example 442, (5S)-2-[(5-Chloro-6-methoxypyridin-3-yl)methyl]-5-{[(3R,4S)-3,4-difluoropyrrolidin-1-yl]carbonyl}-5,6,7,8-tetrahydro[1,2,4]triazolo[4,3-a]pyridin-3(2H)-one] | 9.00
7 | COc1ncc(Cn2nc3n(c2=O)[C@H](C(=O)N2CCC(F)(F)C2)CCC3)cc1Cl [Example 443, (5S)-2-[(5-Chloro-6-methoxypyridin-3-yl)methyl]-5-[(3,3-difluoropyrrolidin-1-yl)carbonyl]-5,6,7,8-tetrahydro[1,2,4]triazolo[4,3-a]pyridin-3(2H)-one] | 9.21
8 | O=C([C@@H]1CCCc2nn(Cc3cccc(C(F)(F)F)c3)c(=O)n21)N1CC[C@H](F)C1 [Example 444, (5S)-5-{[(3S)-3-Fluoropyrrolidin-1-yl]carbonyl}-2-[3-(trifluoromethyl)benzyl]-5,6,7,8-tetrahydro[1,2,4]triazolo[4,3-a]pyridin-3(2H)-one] | 9.72
9 | O=C([C@@H]1CCCc2nn(Cc3cccc(C(F)(F)F)c3)c(=O)n21)N1C[C@@H](F)[C@@H](F)C1 [Example 445, (5S)-5-{[(3R,4S)-3,4-Difluoropyrrolidin-1-yl]carbonyl}-2-[3-(trifluoromethyl)benzyl]-5,6,7,8-tetrahydro[1,2,4]triazolo[4,3-a]pyridin-3(2H)-one] | 9.12
10 | O=C([C@@H]1CCCc2nn(Cc3cccc(C(F)(F)F)c3)c(=O)n21)N1CCC(F)(F)C1 [Example 446, (5S)-5-[(3,3-Difluoropyrrolidin-1-yl)carbonyl]-2-[3-(trifluoromethyl)benzyl]-5,6,7,8-tetrahydro[1,2,4]triazolo[4,3-a]pyridin-3(2H)-one] | 9.14
11 | O=C([C@@H]1CCCc2nn(Cc3cccc(C(F)(F)F)c3)c(=O)n21)N1CC(F)C1 [Example 447, (5S)-5-[(3-Fluoroazetidin-1-yl)carbonyl]-2-[3-(trifluoromethyl)benzyl]-5,6,7,8-tetrahydro[1,2,4]triazolo[4,3-a]pyridin-3(2H)-one] | 8.85
12 | O=C([C@@H]1CCCc2nn(Cc3ccc(F)c(C(F)(F)F)c3)c(=O)n21)N1CC[C@H](F)C1 [Example 448, (5S)-5-{[(3S)-3-Fluoropyrrolidin-1-yl]carbonyl}-2-[4-fluoro-3-(trifluoromethyl)benzyl]-5,6,7,8-tetrahydro[1,2,4]triazolo[4,3-a]pyridin-3(2H)-one] | 9.21

Second part, the compound after the results:

Row | pIC50 | Structure (SMILES)
13 | 8.26 | O=C([C@@H]1CCCc2nn(Cc3ccc(F)c(C(F)(F)F)c3)c(=O)n21)N1CC(O)C1 [Example 449, (5S)-2-[4-Fluoro-3-(trifluoromethyl)benzyl]-5-[(3-hydroxyazetidin-1-yl)carbonyl]-5,6,7,8-tetrahydro[1,2,4]triazolo[4,3-a]pyridin-3(2H)-one]
14 | 8.96 | O=C([C@@H]1CCCc2nn(Cc3ccnc(C(F)(F)F)c3)c(=O)n21)N1CC[C@H](F)C1 [Example 450, (5S)-5-{[(3S)-3-Fluoropyrrolidin-1-yl]carbonyl}-2-{[2-(trifluoromethyl)pyridin-4-yl]methyl}-5,6,7,8-tetrahydro[1,2,4]triazolo[4,3-a]pyridin-3(2H)-one]
15 | 8.96 | O=C([C@@H]1CCCc2nn(Cc3ccc(F)cc3)c(=O)n21)N1CCC(F)(F)C1 [Example 451, (5S)-5-[(3,3-Difluoropyrrolidin-1-yl)carbonyl]-2-(4-fluorobenzyl)-5,6,7,8-tetrahydro[1,2,4]triazolo[4,3-a]pyridin-3(2H)-one]
16 | 8.89 | O=C([C@@H]1CCCc2nn(Cc3ccc(F)cc3)c(=O)n21)N1C[C@@H](F)[C@@H](F)C1 [Example 452, (5S)-5-{[(3R,4S)-3,4-Difluoropyrrolidin-1-yl]carbonyl}-2-(4-fluorobenzyl)-5,6,7,8-tetrahydro[1,2,4]triazolo[4,3-a]pyridin-3(2H)-one]
17 | 9.43 | COc1ccc(Cn2nc3n(c2=O)[C@H](C(=O)N2C[C@@H](F)[C@@H](F)C2)CCC3)cc1 [Example 453, (5S)-5-{[(3R,4S)-3,4-Difluoropyrrolidin-1-yl]carbonyl}-2-(4-methoxybenzyl)-5,6,7,8-tetrahydro[1,2,4]triazolo[4,3-a]pyridin-3(2H)-one]
18 | 10.20 | O=C([C@@H]1CCCc2nn(Cc3ccc(F)c(Cl)c3)c(=O)n21)N1CC[C@H](F)C1 [Example 454, (5S)-2-(3-Chloro-4-fluorobenzyl)-5-{[(3S)-3-fluoropyrrolidin-1-yl]carbonyl}-5,6,7,8-tetrahydro[1,2,4]triazolo[4,3-a]pyridin-3(2H)-one]
19 | 9.11 | O=C([C@@H]1CCCc2nn(Cc3ccc(F)c(Cl)c3)c(=O)n21)N1CCC(F)(F)C1 [Example 455, (5S)-2-(3-Chloro-4-fluorobenzyl)-5-[(3,3-difluoropyrrolidin-1-yl)carbonyl]-5,6,7,8-tetrahydro[1,2,4]triazolo[4,3-a]pyridin-3(2H)-one]
20 | 9.57 | O=C([C@@H]1CCCc2nn(Cc3ccc(F)c(Cl)c3)c(=O)n21)N1C[C@@H](F)[C@@H](F)C1 [Example 456, (5S)-2-(3-Chloro-4-fluorobenzyl)-5-{[(3R,4S)-3,4-difluoropyrrolidin-1-yl]carbonyl}-5,6,7,8-tetrahydro[1,2,4]triazolo[4,3-a]pyridin-3(2H)-one]
21 | 8.88 | O=C([C@@H]1CCCc2nn(Cc3ccc(F)c(Cl)c3)c(=O)n21)N1CC(F)C1 [Example 457, (5S)-2-(3-Chloro-4-fluorobenzyl)-5-[(3-fluoroazetidin-1-yl)carbonyl]-5,6,7,8-tetrahydro[1,2,4]triazolo[4,3-a]pyridin-3(2H)-one]
22 | 9.29 | O=C([C@@H]1CCCc2nn(Cc3ccc(C(F)(F)F)c(Cl)c3)c(=O)n21)N1C[C@@H](F)[C@@H](F)C1 [Example 458, (5S)-2-[3-Chloro-4-(trifluoromethyl)benzyl]-5-{[(3R,4S)-3,4-difluoropyrrolidin-1-yl]carbonyl}-5,6,7,8-tetrahydro[1,2,4]triazolo[4,3-a]pyridin-3(2H)-one]
23 | 9.70 | O=C([C@@H]1CCCc2nn(Cc3ccc(C(F)(F)F)c(Cl)c3)c(=O)n21)N1CC(F)C1 [Example 459, (5S)-2-[3-Chloro-4-(trifluoromethyl)benzyl]-5-[(3-fluoroazetidin-1-yl)carbonyl]-5,6,7,8-tetrahydro[1,2,4]triazolo[4,3-a]pyridin-3(2H)-one]
24 | 9.77 | O=C([C@@H]1CCCc2nn(Cc3ccc(C(F)(F)F)c(Cl)c3)c(=O)n21)N1CCC(F)(F)C1 [Example 460, (5S)-2-[3-Chloro-4-(trifluoromethyl)benzyl]-5-[(3,3-difluoropyrrolidin-1-yl)carbonyl]-5,6,7,8-tetrahydro[1,2,4]triazolo[4,3-a]pyridin-3(2H)-one]
